Reference: US5591741A, “Fungicidal spiroheterocyclic derivatives” (American Cyanamid Company, priority 1993, dated 1997)

What was measured:
Venturis inaequalis = experiment: In vivo fungicidal activity, Apple Scab (AS); details: Table VIa; host plants sprayed; solution of 400 ppm and dilutions
Plasmopara viticola [1] = experiment: In vivo fungicidal activity, Grape Downy Mildew (GDM); details: Table VIa; host plants sprayed; solution of 400 ppm and dilutions; note: ranges in brackets are in %
Botrytis cinerea [2] = experiment: In vivo fungicidal activity, Pepper Botrytis (PB); details: Table VIa; host plants sprayed; solution of 400 ppm and dilutions; note: ranges in brackets are in %
Pyricularia oryzae [3] = format: in vivo; details: Table VIa; host plants sprayed; solution of 400 ppm and dilutions
Cercospora beticola = experiment: In vivo fungicidal activity, Sugar Beet Cercospora (SBC); details: Table VIa; host plants sprayed; solution of 400 ppm and dilutions; note: ranges in brackets are in %
Alternaria solani [4] = experiment: In vivo fungicidal activity, Tomato Early Blight (TEB); details: Table VIa; host plants sprayed; solution of 400 ppm and dilutions; note: ranges in brackets are in %
[5] = system: Erysiphe graminis f. sp. tritici; experiment: In vivo fungicidal activity, Wheat Powdery Mildew (WPM); details: Table VIa; host plants sprayed; solution of 400 ppm and dilutions
Septoria nodorum = experiment: In vivo fungicidal activity, Wheat Blotch (WSN); details: Table VIa; host plants sprayed; solution of 400 ppm and dilutions
Procedure: Test compounds are dissolved in acetone and diluted with deionized water containing about 0.05% TWEEN 20®, a polyoxyethylene sorbitan monolaurate surfactant manufactured by Atlas Chemical Industries, to give a concentration of 400 ppm. Subsequent dilutions are made with an 0.05% aqueous solution of TWEEN 20®.
Host plants are sprayed with test solution, dried and inoculated with fungi. When disease symptom development is optimal, the plants are rated for disease control according to the rating scale shown below. Each test contains inoculated treated plants, inoculated untreated plants and a reference standard. When more than one test is run, the data are averaged.

Plasmopara viticola [6] = experiment: Antisporulant activity against vine downy mildew (PVA); format: in vivo; details: vine leaves, antisporulant foliar spray, 600 ppm, 750 l/ha
Procedure, shortened: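 Cabernet Sauvignon vines (~8 cm) inoculated on lower leaf surfaces with 5×10^4 zoosporangia/ml, held 24 h at 21° C high humidity then 24 h glasshouse. Infected leaves sprayed underside with 600 ppm compound in 1:1 water/acetone, 0.04% Tween 20, 750 l/ha; 96 h glasshouse, 24 h humidity. Sporulating leaf area rated versus control.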

Alternaria solani [7] = experiment: Activity against tomato early blight (AS); format: in vivo; details: Table VI; tomato seedlings, contact prophylactic foliar spray, 4 days
Procedure, shortened: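 Plants were challenged with A. solani conidia (10^4 spores/ml) 24 h after a protective foliar spray of compound in 50:50 acetone/water plus 0.04% Tween 20. Held humid at 21° C for 4 days, then percent leaf area with lesions was scored as a rating relative to controls.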

Botrytis cinerea [8] = experiment: Direct protectant activity against broad bean grey mould (BCB); format: in vivo; details: direct protectant foliar spray, 600 ppm, 4 days
Procedure, shortened: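 Protectant foliar test: lesion coverage assessed 4 days after inoculation and rated relative to untreated or diluent-sprayed plants. Compound applied at 600 ppm to cv The Sutton leaves 24 h before 10^6 conidia/ml suspension; incubation at 22 °C in high humidity.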

Leptosphaeria nodorum = experiment: Activity against wheat leafspot (LN); format: in vivo; details: direct therapeutic foliar spray, 600 ppm, 6-8 days
Procedure, shortened: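 Therapeutic foliar spray: compound at 600 ppm applied to single-leaf wheat (cv Norman) 24 h after inoculation with 1.5×10^6 conidia/ml. Disease control scored after 6-8 days at 22° C and 70% humidity as lesions per leaf versus untreated or diluent-sprayed controls.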

[9] = system: Erysiphe graminis f.sp. hordei; experiment: Activity against barley powdery mildew, direct therapeutic (EGT); format: in vivo; details: direct therapeutic foliar spray, 600 ppm, up to 7 days
Procedure, shortened: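 A curative spray at 600 ppm was applied to single-leaf Golden Promise barley inoculated with powdery mildew conidia the previous day. After up to 7 days at 18 °C and 40% humidity, disease control was rated from percent leaf area sporulating relative to untreated or diluent-sprayed controls.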

[10] = system: Erysiphe graminis f.sp. hordei; experiment: Direct protectant activity against barley powdery mildew (EGP); format: in vivo; details: direct protectant foliar spray, 8 days
Procedure, shortened: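 Rating reflects percentage of leaf area with sporulation compared with untreated or diluent-sprayed controls. Protectant spray was applied to single-leaf barley (cv Golden Promise) 24 h before conidia inoculation. Plants were kept at 18 °C and 40% RH throughout, with 8 days of disease development.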

Phytophthora infestans = format: in vivo; details: tomato, direct protectant foliar spray
[11] = system: Pseudocercosporella herpotrichoides; experiment: Activity against wheat eyespot in-vitro (PHI); format: cell-based; details: 10 ppm, 10 days, 20° C., mycelial growth
Procedure, shortened: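 Mycelial growth was scored after 10 days at 20 °C against untreated or diluent controls. The broth was half-strength potato dextrose, holding 10 ppm test compound (from acetone) and 5×10^4 fragments/ml of the eyespot fungus.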

Rhizoctonia solani = experiment: Activity against Rhizoctonia in-vitro (RSI); format: cell-based; details: 10 ppm, 10 days, 20° C., mycelial growth
Procedure, shortened: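 Compound at a final 10 ppm (acetone vehicle) in half-strength PDB, inoculated with 5×10^4 fragments/ml of shaken-culture R. solani mycelium. After incubation at 20° C for 10 days, growth scored as a rating versus untreated or diluent-treated controls.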

Venturia inaequalis = experiment: Activity against apple scab in-vitro (VII); format: cell-based; details: 10 ppm, 10 days, 20° C., mycelial growth
Procedure, shortened: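 V. inaequalis propagules (5×10^4/ml, malt agar-grown) were exposed in half-strength PDB to 10 ppm final test compound delivered in acetone. Growth was scored after incubation for 10 days at 20° C, as a rating relative to untreated or diluent-sprayed controls.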

Pyricularia oryzae [12] = format: in vivo; details: rice seedlings, direct therapeutic foliar spray, 600 ppm, 4-5 days

| SMILES | disease control rating AS (Apple Scab) (Venturis inaequalis) | disease control rating GDM (Plasmopara viticola [1]) | disease control rating PB (Botrytis cinerea [2]) | disease control rating RB (Pyricularia oryzae [3]) | disease control rating SBC (Cercospora beticola) | disease control rating TEB (Alternaria solani [4]) | disease control rating WPM [5] | disease control rating WSN (Septoria nodorum) | disease control rating PVA (Plasmopara viticola [6]) | disease control rating AS (Alternaria solani [7]) | disease control rating BCB (Botrytis cinerea [8]) | disease control rating LN (Leptosphaeria nodorum) | disease control rating EGT [9] | disease control rating EGP [10] | disease control rating PIP (Phytophthora infestans) | disease control rating PHI [11] | disease control rating RSI (Rhizoctonia solani) | disease control rating VII (Venturia inaequalis) | disease control rating PO (Pyricularia oryzae [12]) |
| --- | --- | --- | --- | --- | --- | --- | --- | --- | --- | --- | --- | --- | --- | --- | --- | --- | --- | --- | --- |
| CN(CCC1COC2(CCC(C(C)(C)C)CC2)C1)C1CCCCC1 (stereo not drawn) [Compound 199] | 6 (75-89) | 5 (60-74) | 7 (90-95) | 0 (0) | 3 (30-44) | 4 (45-59) | 8 (96-99) | 7 (90-95) |  |  |  |  |  |  |  |  |  |  |  |
| CCCCN(CCCC)CCC1COC2(CCC(C(C)(C)C)CC2)C1 (stereo not drawn) [Compound 196] | 5 (60-74) | 5 (60-74) | 5 (60-74) | 6 (75-89) | 8 (96-99) | 0 (0) | 9 (100) | 7 (90-95) |  |  |  |  |  |  |  |  |  |  |  |
| CCCCCC(C)NCCC1COC2(CCC(C(C)(C)C)CC2)C1 (stereo not drawn) [Compound 194] | 6 (75-89) | 7 (90-95) | 4 (45-59) | 0 (0) | 8 (96-99) | 3 (30-44) | 7 (90-95) | 7 (90-95) |  |  |  |  |  |  |  |  |  |  |  |
| CC1CCCC(NCCC2COC3(CCC(C(C)(C)C)CC3)C2)C1 (stereo not drawn) [Compound 192] | 7 (90-95) | 6 (75-89) | 8 (96-99) | 0 (0) | 7 (90-95) | 4 (45-59) | 7 (90-95) | 7 (90-95) |  |  |  |  |  |  |  |  |  |  |  |
| CCCCCC(C)N(CC)CCC1COC2(CCC(C(C)(C)C)CC2)C1 (stereo not drawn) [Compound 202] | 6 (75-89) | 5 (60-74) | 7 (90-95) | 0 (0) | 7 (90-95) | 0 (0) | 8 (96-99) | 5 (60-74) |  |  |  |  |  |  |  |  |  |  |  |
| CN(CC1COC2(CCC(C(C)(C)C)CC2)C1)C1CCCCC1 (stereo not drawn) [Compound 187] | 4 (45-59) | 5 (60-74) | 7 (90-95) | 0 (0) | 5 (60-74) | 6 (75-89) | 9 (100) | 7 (90-95) |  |  |  |  |  |  |  |  |  |  |  |
| CCCCCC(C)N(C)CCC1COC2(CCC(C(C)(C)C)CC2)C1 (stereo not drawn) [Compound 201] | 6 (75-89) | 7 (90-95) | 3 (30-44) | 0 (0) | 6 (75-89) | 0 (0) | 8 (96-99) | 5 (60-74) |  |  |  |  |  |  |  |  |  |  |  |
| CCN(CC1COC2(CCC(C(C)(C)C)CC2)C1)C1CCCCC1 (stereo not drawn) [Compound 188] | 5 (60-74) | 0 (0) | 5 (60-74) | 0 (0) | 4 (45-59) | 0 (0) | 8 (96-99) | 6 (75-89) |  |  |  |  |  |  |  |  |  |  |  |
| CC(C)(C)C1CCC2(CC1)CC(CCNC1CCC3CCCCC3C1)CO2 (stereo not drawn) [Compound 198] | 6 (75-89) | 6 (75-89) | 7 (90-95) | 0 (0) | 8 (96-99) | 6 (75-89) | 8 (96-99) | 8 (96-99) |  |  |  |  |  |  |  |  |  |  |  |
| CCCC(CCC)NCCC1COC2(CCC(C(C)(C)C)CC2)C1 (stereo not drawn) [Compound 193] | 6 (75-89) | 8 (96-99) | 7 (90-95) | 0 (0) | 6 (75-89) | 2 (15-29) | 8 (96-99) | 3 (30-44) |  |  |  |  |  |  |  |  |  |  |  |
| CC(C)(C)C1CCC2(CC1)CC(CCN1CCCCC1)CO2 (stereo not drawn) [Compound 203] | 0 (0) | 0 (0) | 8 (96-99) | 0 (0) | 8 (96-99) | 6 (75-89) | 8 (96-99) | 6 (75-89) |  |  |  |  |  |  |  |  |  |  |  |
| CCN(CCC1COC2(CCC(C(C)(C)C)CC2)C1)C1CCCCC1 (stereo not drawn) [Compound 200] | 7 (90-95) | 5 (60-74) | 8 (96-99) | 0 (0) | 8 (96-99) | 0 (0) | 8 (96-99) | 8 (96-99) |  |  |  |  |  |  |  |  |  |  |  |
| CC(C)(C)C1CCC2(CC1)CC(CCNC1CCCCCC1)CO2 (stereo not drawn) [Compound 195] | 6 (75-89) | 5 (60-74) | 5 (60-74) | 7 (90-95) | 7 (90-95) | 0 (0) | 7 (90-95) | 7 (90-95) |  |  |  |  |  |  |  |  |  |  |  |
| CCCCCCNC1COC2(CCC(C(C)(C)C)CC2)C1 (stereo not drawn) [Compound 39] |  |  |  |  |  |  |  |  | 0 (less than 50% disease control) | 2 (greater than 80% disease control) | 0 (less than 50% disease control) | 0 (less than 50% disease control) | 2 (greater than 80% disease control) | 2 (greater than 80% disease control) | 0 (less than 50% disease control) | 1 (about 50-80% disease control) | 0 (less than 50% disease control) | 0 (less than 50% disease control) | 0 (less than 50% disease control) |
| CCCN(C(CC)CC)C1COC2(CCC(C(C)(C)C)CC2)C1 (stereo not drawn) [Compound 96] |  |  |  |  |  |  |  |  | 0 (less than 50% disease control) | 0 (less than 50% disease control) | 0 (less than 50% disease control) | 0 (less than 50% disease control) | 2 (greater than 80% disease control) | 2 (greater than 80% disease control) | 0 (less than 50% disease control) | 0 (less than 50% disease control) | 1 (about 50-80% disease control) | 1 (about 50-80% disease control) | 0 (less than 50% disease control) |
